These are literature values, as cited in US9817001B2, “Methods for determining LDL cholesterol treatment” (Boston Heart Diagnostics Corporation, priority 2008, dated 2017).

In this data set the test system is HDL particle profile (α-1 HDL, preβ-1 HDL). The note with it: for effect on preβ-1 HDL level: by decreasing CETP activity; for effect on apoA-I kinetics: in vivo.

For `CC(C)c1nc(N(C)S(C)(=O)=O)nc(-c2ccc(F)cc2)c1/C=C/[C@@H](O)C[C@@H](O)CC(=O)O` [Rosuvastatin, rosuvastatin], the “effect on preβ-1 HDL level” value was “significantly decrease” and the “effect on apoA-I kinetics” value was “little or no effect”.

Take `CC(C)c1c(C(=O)Nc2ccccc2)c(-c2ccccc2)c(-c2ccc(F)cc2)n1CC[C@@H](O)C[C@@H](O)CC(=O)O` [atorvastatin]: the “effect on preβ-1 HDL level” value is recorded as “significantly decrease” and the “effect on apoA-I kinetics” value is given as “little or no effect”. On to `CC[C@H](C)C(=O)O[C@H]1C[C@@H](C)C=C2C=C[C@H](C)[C@H](CC[C@@H]3C[C@@H](O)CC(=O)O3)[C@H]21` [lovastatin], for which the “statin effectiveness to change the HDL particle profile beneficially” value (statin therapy, decreasing pre-β1 and increasing α-1) was “almost no change”.
